≈ marks a conversion by molar mass, not a printed value.
Legend:
[1] = Ratio between CCKB and CCKA receptor binding affinity was measured by displacement of [125I]CCK from guinea pig cortical membranes and rat pancreatic tissues respectively
[2] = Log D is the log of the ratio of concentrations in each phase obtained from partitioning between octanol and 100 mM KH2PO4 buffer at pH 7.4.; format: physicochemical; conditions: octanol/100 mM KH2PO4 buffer
[3] = Solubility at a pH 7.4; format: physicochemical; conditions: buffer, read-out: S
Rattus norvegicus [4] = species on record: Rattus norvegicus; assay: In vitro antagonistic activity for single-cell firing in a slice preparation of the rat ventromedial hyphalamic nucleus; format: functional
Rattus norvegicus [5] = assay: Compound was evaluated for its penetration into blood-brain barrier measured by its level in rat brain after an intravenous dose of 3 mg/kg after 1 min; format: functional, organism-based; parameters: dose 3 mg/kg
Rattus norvegicus [6] = assay: Compound was evaluated for its penetration into blood-brain barrier measured by its level in rat brain after an intravenous dose of 3 mg/kg after 10 min; format: functional, organism-based; parameters: dose 3 mg/kg
Rattus norvegicus [7] = assay: Compound was evaluated for its penetration into blood-brain barrier measured by its level in rat brain after an intravenous dose of 3 mg/kg after 30 min; format: functional, organism-based; parameters: dose 3 mg/kg
[8] = Oral bioavailability in rat; format: ADME, organism-based; conditions: in vivo, read-out: Bioavailabiility
[9] = Compound was evaluated for its solubility at a pH 7.4; format: ADME; conditions: buffer

| Selectivity [1] | logD [2] | solubility [3] [µg/mL] | SMILES | further results |
| --- | --- | --- | --- | --- |
| > 8000 |  | 370 (≈ 645 µM) | CN1C(=O)[C@H](NC(=O)Nc2cccc(C(=O)NS(=O)(=O)c3ccccc3)c2)N=C(C2CCCCC2)c2ccccc21 |  |
|  | 1.78 | 50 (≈ 87.2 µM) | CN1C(=O)C(NC(=O)Nc2cccc(S(=O)(=O)NC(=O)c3ccccc3)c2)N=C(C2CCCCC2)c2ccccc21 (stereo not given) | Kb (Rattus norvegicus [4]): 1.2 nM; Level (Rattus norvegicus [5]): 222 ng/g; Level (Rattus norvegicus [6]): 120 ng/g; Level (Rattus norvegicus [7]): 72 ng/g; bioavailability [8]: 14% |
| 19 | 1.42 |  | CN1C(=O)C(NC(=O)Nc2cccc(C(=O)NS(=O)(=O)c3ccccc3)c2)N=C(C2CCCCC2)c2ccccc21 (stereo not given) |  |

Further lines, the molecule ahead of its results:

| SMILES | Selectivity [1] | logD [2] | solubility [3] [µg/mL] | further results |
| --- | --- | --- | --- | --- |
| Cc1cccc(NC(=O)N[C@@H]2N=C(C3CCCCC3)c3ccccc3N(C)C2=O)c1 | 6500 | > 4 | < 0.01 |  |
| Cc1ccccc1S(=O)(=O)NC(=O)c1cccc(NC(=O)N[C@@H]2N=C(C3CCCCC3)c3ccccc3N(C)C2=O)c1 |  | 2 | 410 (≈ 698 µM) |  |
| CC(C)S(=O)(=O)NC(=O)c1cccc(NC(=O)NC2N=C(C3CCCCC3)c3ccccc3N(C)C2=O)c1 (stereo not given) |  | 0.85 | 740 (≈ 1370 µM) |  |
| CC(=O)NS(=O)(=O)c1cccc(NC(=O)NC2N=C(C3CCCCC3)c3ccccc3N(C)C2=O)c1 (stereo not given) | 53 | 0.72 | 260 (≈ 508 µM) |  |
| CC(C)S(=O)(=O)NC(=O)c1cccc(NC(=O)N[C@@H]2N=C(C3CCCCC3)c3ccccc3N(C)C2=O)c1 |  |  | 1160 (≈ 2150 µM) |  |
| CN1C(=O)C(NC(=O)Nc2cccc(C(=O)NS(C)(=O)=O)c2)N=C(C2CCCCC2)c2ccccc21 (stereo not given) |  | 0.34 |  | Level (Rattus norvegicus [5]): 836 ng/g; Level (Rattus norvegicus [6]): 344 ng/g; Level (Rattus norvegicus [7]): 91 ng/g; solubility [9]: 1300 µg/mL (≈ 2540 µM) |
| CN1C(=O)C(NC(=O)Nc2cccc(C(=O)O)c2)N=C(C2CCCCC2)c2ccccc21 (stereo not given) | 2 | 0.89 | 1050 (≈ 2420 µM) |  |

Reference: ChEMBL document CHEMBL1151002, “Potent, selective, water-soluble benzodiazepine-based CCKB receptor antagonists that contain lipophilic carboxylate surrogates” (Bioorg Med Chem Lett, 1995)
